The results in this text go back to patent US7470711B2, “Piperidinyl substituted cyclohexane-1,4-diamines” (Janssen Pharmaceutica N.V., priority 2005, dated 2008).

One assay addresses T1, α1a-AR (Homo sapiens, UniProt P35348).
T1 construct: expressed in transfected cells; host or cells: COS-7 cells (membranes)
T1 sequence (P35348 1-455 isoform P35348-4): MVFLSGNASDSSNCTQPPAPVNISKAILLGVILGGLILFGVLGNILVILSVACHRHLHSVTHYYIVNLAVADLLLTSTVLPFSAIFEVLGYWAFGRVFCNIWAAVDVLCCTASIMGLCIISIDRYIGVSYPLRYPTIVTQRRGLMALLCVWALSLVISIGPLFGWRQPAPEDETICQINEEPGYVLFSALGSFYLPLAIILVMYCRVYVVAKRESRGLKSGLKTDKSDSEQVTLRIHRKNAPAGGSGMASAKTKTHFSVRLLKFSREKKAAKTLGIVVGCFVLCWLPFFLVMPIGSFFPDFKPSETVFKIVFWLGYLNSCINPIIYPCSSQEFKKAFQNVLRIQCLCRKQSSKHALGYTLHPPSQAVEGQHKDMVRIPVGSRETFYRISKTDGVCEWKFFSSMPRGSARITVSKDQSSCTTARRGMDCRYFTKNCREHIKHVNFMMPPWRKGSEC
Briefly: α1-Adrenergic receptor radio-ligand binding assay, α1a subtype. The protocol:
(§1) Membranes were prepared from COS-7 cells (African Green monkey kidney SV40-transformed cells) that had been transfected with one of the three α1-AR subtypes (Genbank accession number for the α1a subtype: AF013261; Genbank accession number for the α1b subtype: NM000679; Genbank accession number for the α1d subtype: NM000678) using the following method: COS cells from ten 100 mm tissue culture plates were scraped into a 5 mL volume of TE (a mixture of 50 mM Tris-HCl, 5 mM EDTA, pH 7.4). […] The disrupted cells were centrifuged at 1000×g for 10 min at 4° C. Supernatants were centrifuged at 34,500×g for 20 min at 4° C. The membrane pellets were suspended in a 2 mL volume of TNE (a mixture of 50 mM Tris-HCl, 5 mM EDTA and 150 mM NaCl at pH 7.4). An aliquot of the membrane suspension was stored at −70° C. until use. The protein concentration was determined using the BioRad “DC” protein assay kit following membrane solubilization with Triton X-100.
(§2) Triplicate determinations of radio-ligand binding in the presence of increasing concentrations of testing compound were made. The reagents were added to 96-well polypropylene plate wells. […] The plate was incubated at rt for 1 hr. The contents of the wells were filtered through a glass filter (type C) (GF/C) membrane Unifilter plate (Packard Instruments) using the Packard Filtermate cell harvester. The filter plates were dried in a vacuum oven for 30 min at 40° C. 25 μL Microscint 20 liquid scintillation fluid (Packard Instuments) was added to each well. The radioactive content was analyzed in the TopCount microplate scintillation counter (Packard Instruments).

The next assay deals with T2, α1b-AR (Homo sapiens, UniProt P35368).
T2 construct: expressed in transfected cells; host or cells: COS-7 cells (membranes)
T2 sequence (P35368 1-520): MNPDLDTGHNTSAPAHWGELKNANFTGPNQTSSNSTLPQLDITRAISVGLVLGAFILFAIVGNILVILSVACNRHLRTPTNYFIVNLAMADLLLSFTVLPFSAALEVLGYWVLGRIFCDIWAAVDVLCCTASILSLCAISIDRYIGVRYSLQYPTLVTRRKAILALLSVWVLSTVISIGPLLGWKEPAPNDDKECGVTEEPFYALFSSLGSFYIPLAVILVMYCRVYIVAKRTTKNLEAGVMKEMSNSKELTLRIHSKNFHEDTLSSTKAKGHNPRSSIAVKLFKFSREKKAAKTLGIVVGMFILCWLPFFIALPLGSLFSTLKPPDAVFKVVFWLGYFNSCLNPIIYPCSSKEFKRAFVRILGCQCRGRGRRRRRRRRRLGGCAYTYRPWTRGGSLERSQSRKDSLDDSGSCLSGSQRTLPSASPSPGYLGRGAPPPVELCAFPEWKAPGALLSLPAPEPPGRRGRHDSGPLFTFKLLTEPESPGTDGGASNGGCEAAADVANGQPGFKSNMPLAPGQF
Put plainly: α1-Adrenergic receptor radio-ligand binding assay, α1b subtype. On the procedure: as §1, §2

A further assay concerns the target T3, α1d-AR (Homo sapiens, UniProt P25100).
T3 construct: expressed in transfected cells; host or cells: COS-7 cells (membranes)
T3 sequence (P25100 1-572): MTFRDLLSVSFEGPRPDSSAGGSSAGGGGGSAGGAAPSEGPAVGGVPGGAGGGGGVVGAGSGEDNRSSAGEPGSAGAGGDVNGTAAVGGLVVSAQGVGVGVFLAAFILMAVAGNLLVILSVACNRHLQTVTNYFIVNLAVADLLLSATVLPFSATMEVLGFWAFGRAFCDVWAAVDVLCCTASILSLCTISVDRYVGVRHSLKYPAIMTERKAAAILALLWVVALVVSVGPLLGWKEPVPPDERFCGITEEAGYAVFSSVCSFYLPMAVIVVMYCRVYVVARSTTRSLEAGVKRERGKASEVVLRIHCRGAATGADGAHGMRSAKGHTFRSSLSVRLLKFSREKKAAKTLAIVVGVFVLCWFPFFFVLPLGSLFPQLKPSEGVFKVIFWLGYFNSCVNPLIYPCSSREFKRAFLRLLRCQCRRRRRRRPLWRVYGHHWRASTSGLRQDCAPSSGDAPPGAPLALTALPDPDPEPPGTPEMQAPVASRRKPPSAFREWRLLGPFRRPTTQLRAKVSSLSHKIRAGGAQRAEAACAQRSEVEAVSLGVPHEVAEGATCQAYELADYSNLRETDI
Briefly: α1-Adrenergic receptor radio-ligand binding assay, α1d subtype. The protocol:
as §1, §2

The mark [1] stands for this setting: read-out: Receptor Binding, Ki α1a-AR.
Where [2] appears, read: 125I-HEAT, membranes of COS-7 cells transfected with α1b subtype, rt 1 hr, read-out: Receptor Binding, Ki α1b-AR.
Setting [3] is: 125I-HEAT, membranes of COS-7 cells transfected with α1d subtype, rt 1 hr, read-out: Receptor Binding, Ki α1d-AR.
Where [4] appears, read: 125I-HEAT, membranes of COS-7 cells transfected with α1a subtype, rt 1 hr, read-out: Receptor Binding, Ki α1a-AR.

In general, pKi refers to −log10 of the Ki, conventionally taken in molar units.

SMILES strings stand for the structures. pKi: −log10 of the molar value. Read-outs that look alike come from different tables or passages of the source.

Take `COc1ccc(S(=O)(=O)N[C@H]2CC[C@@H](N3CCC(c4ccccc4OCC(F)(F)F)CC3)CC2)cc1OC` [Cpd 5, 3,4-dimethoxy-N-cis-(4-{4-[2-(2,2,2-trifluoro-ethoxy)-phenyl]-piperidin-1-yl}-cyclohexyl)-benzenesulfonamide]: the results for the pKi on α1a-AR, on α1b-AR and at α1d-AR were 8.52, 6.33 and 8.14, respectively.

`COc1ccc(S(=O)(=O)N[C@H]2CC[C@H](N3CCC(c4cc(F)ccc4OC(C)C)CC3)CC2)cc1OC` [Cpd 34, N-trans-{4-[4-(5-fluoro-2-isopropoxy-phenyl)-piperidin-1-yl]-cyclohexyl}-3,4-dimethoxy-benzenesulfonamide]: the pKi at α1a-AR (setting [1]) was 7.37; at α1b-AR (setting [2]), 5.83; at α1d-AR (setting [3]) it was 7.28.

Regarding `COc1ccc(S(=O)(=O)N[C@H]2CC[C@@H](N3CCC(c4ccc(F)cc4OC(C)C)CC3)CC2)cc1OC` [Cpd 31, N-cis-{4-[4-(4-fluoro-2-isopropoxy-phenyl)-piperidin-1-yl]-cyclohexyl}-3,4-dimethoxy-benzenesulfonamide], the pKi at α1a-AR (setting [4]) is 7.80; on α1b-AR (setting [2]), 6.16; at α1d-AR it was 7.91.

On to `O=S(=O)(N[C@H]1CC[C@H](N2CCC(c3ccccc3OC3CC3)CC2)CC1)c1cc(Cl)ccc1F` [Cpd 12, 5-chloro-N-trans-{4-[4-(2-cyclopropoxy-phenyl)-piperidin-1-yl]-cyclohexyl}-2-fluoro-benzenesulfonamide], for which the pKi on α1a-AR (setting [4]) is 8.42; at α1b-AR (setting [2]), 6.47; on α1d-AR (setting [3]), 7.49.

As to `O=S(=O)(N[C@H]1CC[C@@H](N2CCC(c3ccccc3OC3CC3)CC2)CC1)c1cc(Cl)ccc1F` [Cpd 11, 5-chloro-N-cis-{4-[4-(2-cyclopropoxy-phenyl)-piperidin-1-yl]-cyclohexyl}-2-fluoro-benzenesulfonamide], the figures for the pKi at α1a-AR (setting [4]), on α1b-AR (setting [2]) and at α1d-AR (setting [3]) were 8.74, 6.97 and 8.68, respectively.

In the case of `O=S(=O)(N[C@H]1CC[C@H](N2CCC(c3ccccc3OC3CC3)CC2)CC1)c1ccc2c(c1)OCO2` [Cpd 22, benzo[1,3]dioxole-5-sulfonic acid trans-{4-[4-(2-cyclopropoxy-phenyl)-piperidin-1-yl]-cyclohexyl}-amide], the figures for the pKi at α1a-AR, on α1b-AR and on α1d-AR were 7.85, 6.47 and 7.24, respectively.

`COc1ccc(S(=O)(=O)N[C@H]2CC[C@@H](N3CCC(c4cc(F)ccc4OC(C)C)CC3)CC2)cc1OC` [Cpd 33, N-cis-{4-[4-(5-fluoro-2-isopropoxy-phenyl)-piperidin-1-yl]-cyclohexyl}-3,4-dimethoxy-benzenesulfonamide]: the pKi on α1a-AR (setting [1]) is 8.48; at α1b-AR (setting [2]), 6.52; on α1d-AR (setting [3]), 8.80.

For `O=S(=O)(N[C@H]1CC[C@@H](N2CCC(c3ccccc3OC3CC3)CC2)CC1)c1ccc(Cl)cc1Cl` [Cpd 15, 2,4-dichloro-N-cis-{4-[4-(2-cyclopropoxy-phenyl)-piperidin-1-yl]-cyclohexyl}-benzenesulfonamide], the pKi at α1a-AR (setting [4]) is 7.10; at α1b-AR (setting [2]), 6.08; at α1d-AR (setting [3]), 8.21.

Regarding `COc1ccc(S(=O)(=O)N[C@H]2CC[C@@H](N3CCC(c4ccccc4OC(C)C)CC3)CC2)cc1OC` [Cpd 1, N-cis-{4-[4-(2-isopropoxy-phenyl)-piperidin-1-yl]-cyclohexyl}-3,4-dimethoxy-benzenesulfonamide], the pKi on α1a-AR is 8.92; on α1b-AR (setting [2]) it was 6.84; at α1d-AR it was 8.74.

Regarding `COc1ccc(S(=O)(=O)N[C@H]2CC[C@H](N3CCC(c4ccccc4OC(C)C)CC3)CC2)cc1OC` [Cpd 2, N-trans-{4-[4-(2-isopropoxy-phenyl)-piperidin-1-yl]-cyclohexyl}-3,4-dimethoxy-benzenesulfonamide], the figures for the pKi at α1a-AR (setting [4]), on α1b-AR (setting [2]) and at α1d-AR (setting [3]) were 7.56, 6.83 and 7.40, respectively.

Take `O=S(=O)(N[C@H]1CC[C@@H](N2CCC(c3ccccc3OC3CC3)CC2)CC1)c1ccc2c(c1)OCO2` [Cpd 21, benzo[1,3]dioxole-5-sulfonic acid cis-{4-[4-(2-cyclopropoxy-phenyl)-piperidin-1-yl]-cyclohexyl}-amide]: the pKi at α1a-AR was 7.81; at α1b-AR, 6.56; at α1d-AR it was 7.89.

Turning to `COc1ccc(Cl)cc1S(=O)(=O)N[C@H]1CC[C@@H](N2CCC(c3ccccc3OC3CC3)CC2)CC1` [Cpd 9, 5-chloro-N-cis-{4-[4-(2-cyclopropoxy-phenyl)-piperidin-1-yl]-cyclohexyl}-2-methoxy-benzenesulfonamide], the pKi on α1a-AR (setting [4]) was 8.89; on α1b-AR (setting [2]) it was 7.09; on α1d-AR (setting [3]), 8.59.

For `O=S(=O)(N[C@H]1CC[C@H](N2CCC(c3ccccc3OC3CC3)CC2)CC1)c1ccc(Cl)cc1Cl` [Cpd 16, 2,4-dichloro-N-trans-{4-[4-(2-cyclopropoxy-phenyl)-piperidin-1-yl]-cyclohexyl}-benzenesulfonamide], the pKi at α1a-AR (setting [4]) was 7.52; at α1b-AR (setting [2]), 6.39; on α1d-AR (setting [3]), 8.62.

`COc1ccc(S(=O)(=O)N[C@H]2CC[C@H](N3CCC(c4ccccc4OCC(F)(F)F)CC3)CC2)cc1OC` [Cpd 6, 3,4-dimethoxy-N-trans-(4-{4-[2-(2,2,2-trifluoro-ethoxy)-phenyl]-piperidin-1-yl}-cyclohexyl)-benzenesulfonamide]: the figures for the pKi at α1a-AR, on α1b-AR and at α1d-AR were 8.85, 5.86 and 7.05, respectively.

On to `COc1ccc(S(=O)(=O)N[C@H]2CC[C@H](N3CCC(c4ccccc4OC4CC4)CC3)CC2)cc1OC` [Cpd 8, N-trans-{4-[4-(2-cyclopropoxy-phenyl)-piperidin-1-yl]-cyclohexyl}-3,4-dimethoxy-benzenesulfonamide], for which the values for the negative-log Ki (pKi) on α1a-AR, at α1b-AR (setting [2]) and at α1d-AR were 7.97, 6.88 and 7.47, respectively.

Consider `COc1ccc(S(=O)(=O)N[C@H]2CC[C@H](N3CCC(c4ccc(F)cc4OC(C)C)CC3)CC2)cc1OC` [Cpd 32, N-trans-{4-[4-(4-fluoro-2-isopropoxy-phenyl)-piperidin-1-yl]-cyclohexyl}-3,4-dimethoxy-benzenesulfonamide], for which the pKi is 7.64 at α1a-AR (setting [4]), 6.19 at α1b-AR (setting [2]) and 7.22 on α1d-AR (setting [3]).
